Assay results published in paper PMC10522709, “Rational design and characterization of cell-selective antimicrobial peptides based on a bioactive peptide from Crocodylus siamensis hemoglobin” (Scientific Reports, 2023).
Ends that are not written are not given here.

What was measured:
[1] = tested on: EcoRI-digested Lambda (λ) DNA; assay: Gel retardation assay; assay type: binding; conditions: 200 ng λ DNA, peptide 4, 6, 8, 16 µg/mL, 60 min, room temperature, 0.8% agarose gel
Procedure: DNA used for this test was Lambda (λ) DNA, which had been digested with EcoRI into fragments sized 21,226, 7421, 5804, 5643, 4878 and 3530 bp (Thermo Fisher Scientific, Waltham, MA, USA). The gel retardation assay was run by mixing 200 ng of λ DNA with different concentrations of IL15.3 at 1 × MIC (4 µg/mL), 2 × MIC (8 µg/mL), 4 × MIC (16 µg/mL) and MBC (6 µg/mL) of E. coli. The mixtures were incubated for 60 min at room temperature and subjected to electrophoresis on a 0.8% agarose gel. Gel was then stained with ViSafe Red gel stain (Vivantis, Selangor Darul Ehsan, Malaysia). Subsequently, DNA bands were photographed using G-box gel documentation (Syngene, USA).

[2] = tested on: S. epidermidis (ATCC12228); assay: Time-killing kinetics assay; assay type: cell-based, Staphylococcus epidermidis; conditions: 1 × MIC, 37 °C, colony count
Procedure: The time-killing kinetics of peptide was determined as described previously by Yaraksa et al.[16] In short, E. coli (ATCC25922) and S. epidermidis (ATCC12228) cells grown overnight were diluted in the Nutrient broth to a concentration of 1 × 10^6 CFU/mL. The diluted bacterial suspension (50 µL) was incubated with the peptide solution (50 µL, final concentration = 1 × MIC or 2 × MIC) at 37 °C. 10 µL of the mixture was taken at regular time intervals (0, 15, 30, 60, 180, 360, 540 and 720 min for 1 × MIC and 0, 30, 60, 180, 360, 720, 1440, 2160 and 2880 min for 2 × MIC), diluted and cultured on nutrient agar plates for 24 h. Bacterial cells were then counted and a graph of the log CFU/mL against incubation time was plotted to evaluate the rate at which peptides kill bacterial cells.

[3] = tested on: Bacillus subtilis (ATCC 6633); assay type: cell-based; conditions: ATCC 6633, 24 h
Procedure: (§1) Broth microdilution assays were performed as reported previously. In short, the bacteria including Escherichia coli (ATCC 25922), Klebsiella pneumoniae (ATCC 27736), Pseudomonas aeruginosa (ATCC 27853), Bacillus subtilis (ATCC 6633), Staphylococcus aureus (ATCC 25923) and Staphylococcus epidermidis (ATCC 12228) were grown in Nutrient broth to mid-log phase at 37 °C. The bacterial suspension (50 μL, concentration of 1 × 10^6 CFU/mL) was loaded into a well with serially diluted peptide (50 µL, final concentrations ranging from 0–200 μg/mL) in a sterile 96-well plate and incubated at 37 °C for 18 h. The optical density (OD) at 600 nm was measured using a microplate reader (ALLSHENG, Zhejiang, China) in order to determine the growth of the bacteria. The inhibition was estimated using the formula; %inhibition=OD600ofcontrol-OD600ofsample/OD600ofcontrol-OD600ofblank×100 where minimal inhibitory concentration (MIC) is defined as the minimum concentration that inhibited 90% of bacterial growth.
(§2) In order to evaluate the minimal bactericidal concentration (MBC)—the lowest concentration that terminates the growth of bacteria on an agar plate—of the peptide, co-culture medium (100 μL) from each well after the microdilution assay was spread on a nutrient agar plate. Plates were maintained at 37 °C for 24 h and the number of colonies formed was counted to evaluate antimicrobial activity.

[4] = tested on: Pseudomonas aeruginosa (ATCC 27853); assay type: cell-based; conditions: ATCC 27853, 24 h
Procedure: as §1, §2

[5] = tested on: Escherichia coli (ATCC 25922); assay type: cell-based; conditions: ATCC 25922, 24 h
Procedure: as §1, §2

[6] = tested on: Klebsiella pneumoniae (ATCC 27736); assay type: cell-based; conditions: ATCC 27736, 24 h
Procedure: as §1, §2

[7] = tested on: Staphylococcus aureus (ATCC 25923); assay type: cell-based; conditions: ATCC 25923, 24 h
Procedure: as §1, §2

[8] = tested on: Staphylococcus epidermidis (ATCC 12228); assay type: cell-based; conditions: ATCC 12228, 24 h
Procedure: as §1, §2

[9] = tested on: human erythrocytes; assay type: cell-based; conditions: red cells of human, 1 h
Procedure: Human whole blood was obtained from Blood Transfusion Center Faculty of Medicine Khon Kaen University (ethical approval number HE601010). Fresh human erythrocytes were carefully mixed with PBS (1:3) and centrifuged at 1000 × g for 2 min. The supernatant was discarded and the cell pellet was resuspended to 2% w/v in PBS. 100 µL of the resuspended erythrocytes were incubated with the peptide (10 µL, final concentrations ranging from 12.5 to 100 μg/mL, two-fold serial dilution) at 37 °C for 1 h. After the treatment, the plate was centrifuged and the supernatant was taken to determine the optical density at 415 nm using a microplate reader (ALLSHENG, Zhejiang, China). The positive control for this assay was the addition of Triton X-100 (1% v/v), which causes 100% hemolysis. The negative control was cells treated with PBS buffer only. The hemolysis activity was estimated using the equation: %hemolysis=OD415ofsample/OD415ofTritonX-100treatedcontrol×100

Sequence: IKHWKKVWKHAKKVL [IL15.3]
- interaction with DNA (gel retardation) [1]: binds to λ DNA fragments
- increase in antimicrobial activity vs QL17: > 1000 fold
- time to inhibit the growth kinetic rate ([2]; 1 × 10^6 CFU/mL): ≤ 180 min
- time to completely stop growth [2]: 360 min
- MBC [3]: 12 µg/mL
- MBC [4]: 18 µg/mL
- MBC [5]: 6 µg/mL
- MBC [6]: 25 µg/mL
- MBC [7]: 25 µg/mL
- MBC [8]: 12 µg/mL
- Hemolysis concentration50 (HC50) [9]: >2000 µg/mL
